Data set [1] deals with normal (control) and cancer cell lines. Put plainly: MTT cytotoxicity assay, summary statements over the tested cell lines. The settings on record: data not shown. It counts as cell-based, human. In general terms: Formazan colour is commonly taken as a measure of viable cells.
In data set [2] the test system is HTB140 cells. The data set is described as follows: Nuclei roundness by image analysis, HTB140. The settings on record: 0.0625 mg mL^–1; for nuclei circularity index: HTB140, after the first 24 h. It counts as cell-based, human. As to the method: (§1) Cellular studies 12-well plates were used, cell density 3 × 10^5 per well. After 24 h and 48 h of incubation with tested compounds (0.0625 mg mL^–1), the samples were fixed according to standard protocol. Tubulin (green; AlexaFluor-488 mouse anti-β-tubulin IgG; BD Biosciences, San Jose, CA, USA, Pharminogen; cat. 558605), vimentin (infra-red; I: rabbit-anti-vimentin IgG; GeneTex, Irvine, CA, USA; GTX100619; II: chicken-anti-rabbit-AlexaFluor647 IgG; ThermoFisher, Waltham, MA, USA) and counterstained nuclei (blue; Hoechst 33258; Sigma-Aldrich, Darmstadt, Germany) and F-actin (red; AlexaFluor546-phalloidin; ThermoFisher, Waltham, MA, USA). Next, the samples were washed 5 times with deionized water and prepared for imaging with Fluorescent Mounting Medium (Dako Omnis, Agilent, Santa Clara, CA, USA). Microscopic measurements and observations were carried out with the use of fluorescent techniques performed on Zeiss Axio Observer Z.1 microscope with LSM 710 module (Carl Zeiss Microscopy GmbH Carl-Zeiss-Promenade 10, 07745 Jena, Germany). Image acquisition, processing, deconvolution and analysis were performed using Zeiss ZEN Black software ver. 8.1.0.484 and FluoRender 2.21.0. An oil immersion 40×/NA:1.4 lens was used for observations. Parameters used for acquisition of cell morphology were: nucleus—blue channel (405 nm); microtubular network—green channel (488 nm); Actin—red channel (546 nm); vimentin—far red channel (647 nm).

Data set [3] deals with DU145 prostate cancer cells. Put plainly: MTT cytotoxicity assay, DU145.
Procedure: (§3) The following cell lines were used: human prostate cancer cells from metastases to the brain DU145 (ATCC® HTB-81™, Manassas, Virginia); healthy human prostate epithelial cell line as a control (PNT2; Sigma-Aldrich, Darmstadt, Germany); human melanoma Hs 294T (ATCC® HTB-140™, Manassas, Virginia); human epidermal keratinocytes (HaCaT) HEK001 (ATCC® CRL-2404™, Manassas, Virginia); and normal human skin fibroblasts BJ (ATCC® CRL2522™) as controls. The cells were cultured in 37 °C with humidified atmosphere enriched with 5% CO2 in appropriate cell culture media: DMEM F12Ham (Sigma-Aldrich, Darmstadt, Germany) + 5% FBS (Thermo Fisher Scientific; Gibco; Waltham, MA, USA); RPMI-1640 (Sigma-Aldrich, Darmstadt, Germany) + 10% FBS (Thermo Fisher Scientific; Gibco; Waltham, MA, USA); DMEM high glucose (Sigma-Aldrich) + 10% FBS (Thermo Fisher Scientific; Gibco; Waltham, MA, USA); DMEM low glucose (Sigma-Aldrich, Darmstadt, Germany) + 10% FBS (Thermo Fisher Scientific; Gibco; Waltham, MA, USA). All media contained a penicillin/streptomycin (Sigma-Aldrich, Darmstadt, Germany) cocktail.
(§4) For the determination of the cytotoxic effect of tested compounds, normal (control) and cancer cell lines cells were tested at a concentration of 2.5 × 10^4 cells cm^–^2 in appropriate culture medium into 96 well microplates (VWR, Radnor, PA, USA). Cells were preincubated with four different concentrations of tested compounds: 0.5, 0.25, 0.125 and 0.0625 mg mL^–1 for 24 h, 72 h and 120 h in cell incubator. After the incubation, MTT labelling reagent (final concentration 0.5 mg mL^–1) and solubilizing solution were added according to the protocol. The samples absorbance was measured using a microplate reader (Multiscan FC; Thermo Fisher Scientific, Waltham, MA, USA) by 570 nm wavelength, 620 nm for reference.
For data set [4], the system named is HaCAT human skin keratynocytes. The data set is described as follows: MTT cytotoxicity assay, HaCAT (control). The settings on record: 72 h.
Procedure: as §3, §4
Data set [5] relates to HTB140 human skin melanoma cells. The data set is described as follows: MTT cytotoxicity assay, HTB140.
Procedure: as §3, §4
In data set [6] the test system is HSF human skin fibroblasts. The data set is described as follows: MTT cytotoxicity assay, HSF (control). The following applies: 72 h.
Procedure: as §3, §4
Data set [7] concerns PNT2 prostate epithelium cells. The data set is described as follows: MTT cytotoxicity assay, PNT2 (control).
Procedure: as §3, §4
Data set [8] has as its system HSF human skin fibroblasts.
Procedure: as §3, §4
Data set [9] concerns HaCAT human skin keratynocytes.
Procedure: as §3, §4
The subject of data set [10] is DU145 cells. The data set is described as follows: Transmigration assay (Boyden's chamber), DU145. The settings on record: DU145, 96 h, 0.0625 mg mL^–1, transmigration/proliferation ratio relative to sugar control. It counts as cell-based, human. As to the method: (§2) Transmigration assay was performed using 24-well glass-bottom plate (Eppendorf) containing microporous membranes in Boyden’s chamber (Corning; pore diameter: 8 μm; membrane diameter: 6.5 mm). Native DU145 and HTB140 cells were seeded at density of 3 × 10^5 cells per membrane with tested compounds (0.0625 mg mL^–1) and left for 48 and 96 h for transmigration. The transmigrating cells were fixed with 3.7% formaldehyde and counted. The result is presented as a reference to the rate of cell proliferation in the corresponding compound.

The subject of data set [11] is DU145 cells. The data set is described as follows: Nuclei roundness by image analysis, DU145. It counts as cell-based, human. The following applies: DU145, after 48 h, 0.0625 mg mL^–1. As to the method: as §1, with “Parameters used for acquisition of cell morphology were: nucleus—blue channel (405 nm); microtubular network—green channel (488 nm); Actin—red channel (546 nm); vimentin—far red channel (647 nm).” left out

Data set [12] relates to HTB140 cells. Put plainly: Transmigration assay (Boyden's chamber), HTB140. It counts as cell-based, human. The following applies: HTB140, 96 h, 0.0625 mg mL^–1, relative to sugar control. As to the method:
as §2

The test system of data set [13] is Jurkat (Human T-cell leukemia). Also noted: method as in doi:10.1002/app.47192, PMID 29904629. The settings on record: cited from earlier work.

Where two headings read alike, the source gives them in different places.

Regarding `O=C[C@H](O)[C@@H](O)[C@@H](O)[C@H](O)CO` [gal, β-d-galactopyranose, reference compound], the “cytotoxicity in the MTT test (in words)” value in data set [1] is listed as “low cytotoxicity”. Also, the nuclei circularity index result in data set [2] was “smallest round nuclei”.

Turning to `OC[C@H]1OC(O)[C@H](O)[C@@H](O)[C@@H]1O` (stereo partly drawn) [glu, α-D-glucopiranose, reference compound], the “cytotoxicity in the MTT test (in words)” value in [1] is recorded as “low cytotoxicity”. The nuclei circularity index result in data set [2] is “smallest round nuclei”.

As a reminder, the IC50 is the concentration that inhibits the measured activity by half. For the molecule galactose nonanoic ester [C9-gal], the IC50 amounted to 1560 µM in [3] (DU145, 24 h); 780 µM in data set [3] (DU145, 72 h); 1560 µM in [3] (DU145, 120 h); 1560 µM in data set [4]; 1660 µM in data set [5] (HTB140, 24 h); 1560 µM in data set [5] (HTB140, 72 h). Besides, the 50% inhibitory concentration (IC50) in data set [5] (HTB140, 120 h) is 1560 µM; in data set [6] it was 1560 µM; in data set [7] (PNT2, 24 h) it was 2390 µM; in [7] (PNT2, 72 h), 1230 µM; in [7] (PNT2, 120 h), 2360 µM; in [8] it was 1560 µM. In addition, in data set [9], the IC50 came to 1560 µM.

For the molecule lactose nonanoic ester [C9-lac], the IC50 was 920 µM in data set [3] (DU145, 24 h); 840 µM in data set [3] (DU145, 72 h); 460 µM in data set [3] (DU145, 120 h); 837 µM in data set [3] (read-out: Cytotoxicity of SFAE determined by MTT assay (IC50), Supplementary Table 2, DU145, 72 h, standard deviation on line d below); 460 µM in data set [3] (read-out: Cytotoxicity of SFAE determined by MTT assay (IC50), Supplementary Table 2, DU145, 120 h, standard deviation on line d below); 920 µM in data set [4]. Also, the half-maximal inhibitory concentration (IC50) stood at 620 µM in [5] (HTB140, 24 h); 920 µM in [5] (HTB140, 72 h); 810 µM in data set [5] (HTB140, 120 h); 622 µM in [5] (read-out: Cytotoxicity of SFAE determined by MTT assay (IC50), Supplementary Table 2, HTB 140, 24 h, standard deviation on line d below); 805 µM in [5] (read-out: Cytotoxicity of SFAE determined by MTT assay (IC50), Supplementary Table 2, HTB 140, 120 h, standard deviation on line d below); 920 µM in [6]. In addition, the half-inhibitory concentration (IC50) in data set [7] (PNT2, 24 h) is 1710 µM; in data set [7] (PNT2, 72 h), 920 µM; in data set [7] (PNT2, 120 h), 1740 µM; in data set [7] (read-out: Cytotoxicity of SFAE determined by MTT assay (IC50), Supplementary Table 2, PNT2, 24 h, standard deviation on line d below) it was 1710 µM; in data set [7] (read-out: Cytotoxicity of SFAE determined by MTT assay (IC50), Supplementary Table 2, PNT2, 120 h, standard deviation on line d below), 1740 µM. Moreover, in data set [10], the reduction of transmigration is reported as 25%. In addition, the “change of nuclei roundness” value in [11] is given as “decrease in nucleus roundness index”. In addition, the decrease of transmigration in data set [12] is reported as 16%. Moreover, the nuclei circularity index result in data set [2] is on record as “highest circularity index”. Besides, the “change of nuclei shape (decrease in roundness index)” value in data set [2] (HTB140, after the next 24 h (48 h)) is listed as “biggest change”.

“mixture of (3R)-hydroxynonanoate glucose esters and (3R)-hydroxyheptanoate glucose esters [mPHN-glu]”: half-maximal inhibition in data set [9] (IC50) required 1430 µM.

Take octanoic acid glucose ester: the 50% inhibitory concentration (IC50) in data set [13] is 120 µM.

(Values after paper PMC8268987, “In Search of Effective Anticancer Agents—Novel Sugar Esters Based on Polyhydroxyalkanoate Monomers” (International Journal of Molecular Sciences, 2021).)
